From US6495591B1, “Fungal efflux pump inhibitors” (Essential Therapeutics, Inc., priority 1997, dated 2002)

Tests used:
[1] = tested on: C. krusei YEM-52 (ATCC 90878), wild type; test: Broth dilution MIC, fluconazole with/without milbemycin oxime (Table 6); assay type: cell-based; conditions: YEM-52; milbemycin oxime 2.5 μg/ml
C. albicans YEM-13 (BEN) = assay type: cell-based
[2] = tested on: C. albicans YEM-15 (CDR1 & CDR2 overexpressor); assay type: cell-based
[3] = tested on: C. glabrata YEM-19 (CgCDR overexpressor); assay type: cell-based
[4] = tested on: C. krusei YEM-52 (ATCC 90878), wild type; test: Minimal concentration to reduce fluconazole MIC sixteen-fold (Table 7); assay type: cell-based; conditions: YEM-52, wild type
[5] = target: pCDRI (ABC) efflux pump in S. cerevisiae YEM-1 (Candida albicans, UniProt P43071); test: cell-based; assay type: cell-based, C. albicans; conditions: YEM-1 pCDRI; fluconazole fixed at FLUhalf 5.6
[6] = target: pCDR2 (ABC) efflux pump in S. cerevisiae YEM-37 (Candida albicans, UniProt P78595); test: cell-based; assay type: cell-based, C. albicans; conditions: YEM-37 pCDR2; fluconazole fixed at FLUhalf 1
[7] = target: pCgCDR (ABC) efflux pump in S. cerevisiae YEM-39 (Candida glabrata, UniProt Q6FK23); test: cell-based; assay type: cell-based, C. glabrata; conditions: YEM-39 pCgCDR; fluconazole fixed at FLUhalf 4
[8] = target: pBEN (MF) efflux pump in S. cerevisiae YEM-2 (Candida albicans, UniProt P28873); test: cell-based; assay type: cell-based, C. albicans; conditions: YEM-2 pBEN; fluconazole fixed at FLUhalf 5.6
[9] = target: pFLU (MF) efflux pump in S. cerevisiae YEM-38 (Candida albicans, UniProt G1UB37); test: cell-based; assay type: cell-based, C. albicans; conditions: YEM-38 pFLU; fluconazole fixed at FLUhalf 2
[10] = tested on: pCgBEN (MF) efflux pump in S. cerevisiae YEM-40; assay type: cell-based, C. glabrata
[11] = tested on: YEM 13 C. albicans BEN up; test: microbe, parasite or virus in culture; assay type: cell-based; conditions: YEM 13, 24 hrs, 80% inhibition
[12] = tested on: YEM 15 C. albicans, CDR1CDR2 up; test: microbe, parasite or virus in culture; assay type: cell-based; conditions: YEM 15, 24 hrs, 80% inhibition
YEM 53 C. krusei = test: FEPI MIC with/without 1/8 fluconazole MIC at 24 hrs (Table 11); assay type: cell-based; conditions: YEM 53, 24 hrs, 80% inhibition
[13] = tested on: YEM 17 C. glabrata, CgCDR up; assay type: cell-based; conditions: 24 hrs, 80% inhibition
YEM 51 C. glabrata wt = test: FEPI MIC with/without 1/8 fluconazole MIC at 24 hrs (Table 11); assay type: cell-based; conditions: YEM 51, 24 hrs, 80% inhibition
YEM 30 C. albicans wt = test: as above; assay type: cell-based; conditions: YEM 30, 24 hrs, 80% inhibition
[14] = tested on: YEM 24 C. albicans ΔCDR1, ΔCDR2; test: microbe, parasite or virus in culture; assay type: cell-based; conditions: YEM 24, 24 hrs, 80% inhibition
[15] = tested on: YEM 27 C. albicans ΔCDR1ΔCDR2 ΔBENΔFLU1; test: microbe, parasite or virus in culture; assay type: cell-based; conditions: YEM 27, 24 hrs, 80% inhibition
Aspergillus fumigatus = test: FEPI MICs in combination with 1/4 the azole's MIC (Table 12); assay type: cell-based; parameters: FEPI MIC (alone): unit not given here
Method: The combinations were tested against a series of Candida strain with known expression of efflux pumps or with complete deletion of all known pumps and Aspergillus fumigatus. Results are reported as minimum inhibitory concentration (MIC) of […] in the presence or absence of […]. A total of 27 distinct milbemycins were studied.

Sequence of pCDR2 (ABC) efflux pump in S. cerevisiae YEM-37 (P78595 whole entry): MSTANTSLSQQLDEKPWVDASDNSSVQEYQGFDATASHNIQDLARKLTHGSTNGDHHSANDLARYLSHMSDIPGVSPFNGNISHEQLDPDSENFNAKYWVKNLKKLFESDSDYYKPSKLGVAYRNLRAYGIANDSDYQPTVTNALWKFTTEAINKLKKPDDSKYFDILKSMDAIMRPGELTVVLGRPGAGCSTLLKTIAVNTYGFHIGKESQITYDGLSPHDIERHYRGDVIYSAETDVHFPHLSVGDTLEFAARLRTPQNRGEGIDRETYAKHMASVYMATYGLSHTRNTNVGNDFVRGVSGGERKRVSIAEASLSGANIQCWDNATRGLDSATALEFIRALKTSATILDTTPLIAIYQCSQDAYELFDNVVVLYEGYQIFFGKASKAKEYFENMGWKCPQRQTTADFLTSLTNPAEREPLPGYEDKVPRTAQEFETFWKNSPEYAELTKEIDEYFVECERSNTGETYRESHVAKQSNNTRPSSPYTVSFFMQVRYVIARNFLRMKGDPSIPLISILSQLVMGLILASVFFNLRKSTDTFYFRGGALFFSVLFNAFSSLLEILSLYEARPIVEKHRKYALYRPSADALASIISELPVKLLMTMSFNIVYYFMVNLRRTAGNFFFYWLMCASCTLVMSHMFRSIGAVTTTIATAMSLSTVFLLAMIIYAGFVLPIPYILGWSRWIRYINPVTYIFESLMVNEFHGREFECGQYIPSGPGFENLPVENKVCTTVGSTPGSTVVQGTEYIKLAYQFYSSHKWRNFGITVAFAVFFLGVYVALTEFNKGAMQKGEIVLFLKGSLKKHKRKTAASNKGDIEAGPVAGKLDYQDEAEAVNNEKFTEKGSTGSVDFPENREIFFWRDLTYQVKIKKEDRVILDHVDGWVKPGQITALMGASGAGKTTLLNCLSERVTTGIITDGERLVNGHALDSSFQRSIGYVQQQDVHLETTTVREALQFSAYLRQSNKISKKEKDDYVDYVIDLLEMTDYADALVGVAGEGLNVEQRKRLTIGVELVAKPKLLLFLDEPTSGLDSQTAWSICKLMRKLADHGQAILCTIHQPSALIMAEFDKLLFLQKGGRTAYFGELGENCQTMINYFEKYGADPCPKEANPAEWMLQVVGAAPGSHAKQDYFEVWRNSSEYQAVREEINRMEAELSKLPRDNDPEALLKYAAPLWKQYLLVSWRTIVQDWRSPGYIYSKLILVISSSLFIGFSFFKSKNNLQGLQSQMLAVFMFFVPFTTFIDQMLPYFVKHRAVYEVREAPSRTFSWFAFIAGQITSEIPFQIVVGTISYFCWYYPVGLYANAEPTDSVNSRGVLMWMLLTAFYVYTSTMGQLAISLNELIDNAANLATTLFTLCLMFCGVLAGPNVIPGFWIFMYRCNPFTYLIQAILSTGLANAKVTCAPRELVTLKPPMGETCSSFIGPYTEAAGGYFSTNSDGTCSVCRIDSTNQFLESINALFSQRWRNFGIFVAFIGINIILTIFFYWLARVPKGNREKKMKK
Sequence of pFLU (MF) efflux pump in S. cerevisiae YEM-38 (G1UB37 whole entry): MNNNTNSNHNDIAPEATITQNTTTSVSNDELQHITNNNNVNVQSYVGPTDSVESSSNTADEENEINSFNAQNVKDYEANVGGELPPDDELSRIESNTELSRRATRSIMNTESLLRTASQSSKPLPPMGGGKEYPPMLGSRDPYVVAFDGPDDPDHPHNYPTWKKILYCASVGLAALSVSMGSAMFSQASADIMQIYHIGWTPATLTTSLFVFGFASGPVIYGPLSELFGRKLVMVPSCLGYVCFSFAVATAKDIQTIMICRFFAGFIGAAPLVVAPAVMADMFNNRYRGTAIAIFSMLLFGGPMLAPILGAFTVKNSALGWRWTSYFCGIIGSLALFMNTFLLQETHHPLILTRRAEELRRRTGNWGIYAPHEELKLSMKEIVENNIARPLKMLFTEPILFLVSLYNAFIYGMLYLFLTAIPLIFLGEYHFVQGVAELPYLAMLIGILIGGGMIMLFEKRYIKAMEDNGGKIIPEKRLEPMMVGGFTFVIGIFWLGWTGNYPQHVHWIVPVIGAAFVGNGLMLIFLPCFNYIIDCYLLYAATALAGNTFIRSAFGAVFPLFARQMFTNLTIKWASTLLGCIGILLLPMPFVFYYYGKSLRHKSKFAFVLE
Sequence of pCDRI (ABC) efflux pump in S. cerevisiae YEM-1 (P43071 whole entry): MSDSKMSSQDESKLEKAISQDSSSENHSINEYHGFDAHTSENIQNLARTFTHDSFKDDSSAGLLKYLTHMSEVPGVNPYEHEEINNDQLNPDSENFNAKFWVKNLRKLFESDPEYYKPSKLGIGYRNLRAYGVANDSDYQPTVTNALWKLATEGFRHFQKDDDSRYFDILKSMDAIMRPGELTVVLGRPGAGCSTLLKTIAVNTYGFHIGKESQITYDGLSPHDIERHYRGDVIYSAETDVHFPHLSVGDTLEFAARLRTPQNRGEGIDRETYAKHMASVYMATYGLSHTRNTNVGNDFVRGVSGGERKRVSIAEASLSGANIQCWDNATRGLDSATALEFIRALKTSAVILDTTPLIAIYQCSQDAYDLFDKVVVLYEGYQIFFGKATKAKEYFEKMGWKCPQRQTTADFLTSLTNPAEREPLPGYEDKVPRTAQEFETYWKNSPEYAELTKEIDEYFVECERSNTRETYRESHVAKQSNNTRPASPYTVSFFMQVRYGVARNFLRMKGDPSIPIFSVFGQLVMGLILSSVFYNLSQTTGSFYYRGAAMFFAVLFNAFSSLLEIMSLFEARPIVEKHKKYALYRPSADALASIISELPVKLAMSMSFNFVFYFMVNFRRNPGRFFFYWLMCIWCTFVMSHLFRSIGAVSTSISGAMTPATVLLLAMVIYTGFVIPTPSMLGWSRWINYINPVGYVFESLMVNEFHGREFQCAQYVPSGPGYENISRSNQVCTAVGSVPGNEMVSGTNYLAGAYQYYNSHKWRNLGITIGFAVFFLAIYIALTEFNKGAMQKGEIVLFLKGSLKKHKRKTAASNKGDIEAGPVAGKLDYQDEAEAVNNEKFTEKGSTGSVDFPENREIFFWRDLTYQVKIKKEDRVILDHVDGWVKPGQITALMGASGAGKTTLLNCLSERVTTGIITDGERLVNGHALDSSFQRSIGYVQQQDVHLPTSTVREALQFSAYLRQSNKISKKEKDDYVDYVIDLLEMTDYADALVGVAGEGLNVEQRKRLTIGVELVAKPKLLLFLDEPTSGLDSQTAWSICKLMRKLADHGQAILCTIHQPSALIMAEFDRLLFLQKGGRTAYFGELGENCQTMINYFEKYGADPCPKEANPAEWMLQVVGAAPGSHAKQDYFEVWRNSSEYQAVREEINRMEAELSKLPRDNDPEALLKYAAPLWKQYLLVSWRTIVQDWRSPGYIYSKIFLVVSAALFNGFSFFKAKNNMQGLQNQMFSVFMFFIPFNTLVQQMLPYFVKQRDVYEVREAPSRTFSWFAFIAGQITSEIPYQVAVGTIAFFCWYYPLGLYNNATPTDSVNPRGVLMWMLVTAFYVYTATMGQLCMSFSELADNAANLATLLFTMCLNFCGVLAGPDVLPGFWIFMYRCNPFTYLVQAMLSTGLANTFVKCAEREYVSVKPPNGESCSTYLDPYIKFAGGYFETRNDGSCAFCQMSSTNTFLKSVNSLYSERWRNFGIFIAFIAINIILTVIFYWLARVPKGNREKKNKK
Sequence of pBEN (MF) efflux pump in S. cerevisiae YEM-2 (P28873 whole entry): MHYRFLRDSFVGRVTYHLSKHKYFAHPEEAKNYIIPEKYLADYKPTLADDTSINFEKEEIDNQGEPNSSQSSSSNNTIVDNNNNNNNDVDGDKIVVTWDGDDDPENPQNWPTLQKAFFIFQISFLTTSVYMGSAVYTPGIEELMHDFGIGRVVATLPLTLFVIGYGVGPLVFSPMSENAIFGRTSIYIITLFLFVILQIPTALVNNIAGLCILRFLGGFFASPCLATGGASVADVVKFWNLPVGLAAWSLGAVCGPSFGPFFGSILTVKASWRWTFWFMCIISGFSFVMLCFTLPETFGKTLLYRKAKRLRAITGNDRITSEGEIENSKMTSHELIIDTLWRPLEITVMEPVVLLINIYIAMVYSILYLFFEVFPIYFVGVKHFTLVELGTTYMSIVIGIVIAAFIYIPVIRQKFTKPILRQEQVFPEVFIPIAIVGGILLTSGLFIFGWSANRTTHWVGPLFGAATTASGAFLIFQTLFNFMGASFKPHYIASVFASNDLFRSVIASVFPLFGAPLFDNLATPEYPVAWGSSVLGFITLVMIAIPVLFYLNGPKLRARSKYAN

Substance: Milbemycin oxime [Compound 2]
- MIC of fluconazole, Flu + McOxm (2.5 μg/ml) [1]: 2 µg/mL
- Minimal concentration required to reduce the MIC of fluconazole by sixteen-fold (C. albicans YEM-13 (BEN)): 80 µg/mL
- Minimal concentration required to reduce the MIC of fluconazole by sixteen-fold [2]: <0.07 µg/mL
- Minimal concentration required to reduce the MIC of fluconazole by sixteen-fold [3]: >80 µg/mL
- Minimal concentration required to reduce the MIC of fluconazole by sixteen-fold [4]: 1.25 µg/mL
- FEPIhalf (concentration needed to reduce activity of efflux pump by 50%) [5]: <0.06
- FEPIhalf (concentration needed to reduce activity of efflux pump by 50%) [6]: 0.125
- FEPIhalf (concentration needed to reduce activity of efflux pump by 50%) [7]: 64
- FEPIhalf (concentration needed to reduce activity of efflux pump by 50%) [8]: >64
- FEPIhalf (concentration needed to reduce activity of efflux pump by 50%) [9]: >64
- FEPIhalf (concentration needed to reduce activity of efflux pump by 50%) [10]: >64
- MIC of compound in the presence of fluconazole (+) ([11]; 1/8 × MIC of fluconazole): > 64 µg/mL
- MIC of compound in the absence of fluconazole (−) [11]: > 64 µg/mL
- MIC of compound in the presence of fluconazole (+) ([12]; 1/8 × MIC of fluconazole): ≦0.03
- MIC of compound in the absence of fluconazole (−) [12]: > 64 µg/mL
- MIC of compound in the presence of fluconazole (+) (YEM 53 C. krusei; 1/8 × MIC of fluconazole): 2 µg/mL
- MIC of compound in the absence of fluconazole (−) (YEM 53 C. krusei): > 64 µg/mL
- MIC of compound in the presence of fluconazole (+) ([13]; 1/8 × MIC of fluconazole): 4 µg/mL
- MIC of compound in the absence of fluconazole (−) [13]: > 64 µg/mL
- MIC of compound in the presence of fluconazole (+) (YEM 51 C. glabrata wt; 1/8 × MIC of fluconazole): 16 µg/mL
- MIC of compound in the absence of fluconazole (−) (YEM 51 C. glabrata wt): > 64 µg/mL
- MIC of compound in the presence of fluconazole (+) (YEM 30 C. albicans wt; 1/8 × MIC of fluconazole): ≦0.03
- MIC of compound in the absence of fluconazole (−) (YEM 30 C. albicans wt): > 64 µg/mL
- MIC of compound in the presence of fluconazole (+) ([14]; 1/8 × MIC of fluconazole): > 64 µg/mL
- MIC of compound in the absence of fluconazole (−) [14]: > 64 µg/mL
- MIC of compound in the presence of fluconazole (+) ([15]; 1/8 × MIC of fluconazole): 64 µg/mL
- MIC of compound in the absence of fluconazole (−) [15]: > 64 µg/mL
- FEPI MIC with fluconazole, 60% Inh (Aspergillus fumigatus; fluconazole 32 μg/ml (1/4 MIC), 60% inhibition): 2
- FEPI MIC with fluconazole, 80% Inh (Aspergillus fumigatus; fluconazole 32 μg/ml (1/4 MIC), 80% inhibition): >64
- FEPI MIC with itraconazole, 60% Inh (Aspergillus fumigatus; itraconazole 0.063 μg/ml (1/4 MIC), 60% inhibition): >64
- FEPI MIC with itraconazole, 80% Inh (Aspergillus fumigatus; itraconazole 0.063 μg/ml (1/4 MIC), 80% inhibition): >64
- FEPI MIC with ketoconazole, 60% Inh (Aspergillus fumigatus; ketoconazole 4 μg/ml (1/4 MIC), 60% inhibition): 0.5
- FEPI MIC with ketoconazole, 80% Inh (Aspergillus fumigatus; ketoconazole 4 μg/ml (1/4 MIC), 80% inhibition): 0.5
- FEPI MIC (alone) (Aspergillus fumigatus; no azole, 80% inhibition, 35° C., CM Broth): >64
